Test results from the NIST ThermoML archive (doi:10.1016/j.jct.2016.11.030).
Numbers after ± are expanded uncertainties.

Assays:
[1] = Molar enthalpy of transition or fusion; details: Crystal; DSC
[2] = Crystal; DTA

Molar enthalpy of transition or fusion [1]: 7.35 ± 0.335 kcal/mol
Normal melting temperature [2]: 116 ± 1.1 °C
SMILES: COc1cc(CO)ccc1O [4-hydroxy-3-methoxybenzyl alcohol]
